The values below are quoted from earlier work in publication PMC7456637, “Pharmacokinetic characterization of fluorocoxib D, a cyclooxygenase-2-targeted optical imaging agent for detection of cancer” (Journal of Biomedical Optics, 2020).

The conditions of data set [1]: administrated orally; cited from earlier work.
The next data set has as its system COX2. To be noted: cited from earlier work.
The test system of another data set is COX1. The following applies: cited from earlier work.
Another data set relates to RAW264.7 macrophages. Details: method as in PMID 20430759. The following applies: cited from earlier work.
The conditions of data set [2]: dog, in vivo, po, 2 mg/kg; cited from earlier work.

Structures are written as SMILES.

Turning to `COc1ccc2c(c1)c(CC(=O)O)c(C)n2C(=O)c1ccc(Cl)cc1` [Indomethacin, reference compound], the Bioavailability in data set [1] is 100%. In addition, the IC50 was […] in the data set on COX2, […] in the data set on COX1 and 10 nM in the data set with RAW264.7 macrophages.
Turning to `CCc1ccc(Nc2c(F)c(F)cc(F)c2F)c(CC(=O)O)c1` [robenacoxib], the “Elimination t1/2” value in data set [2] is listed as 1.1 h.

For orientation: IC50 means the midpoint of a concentration-inhibition curve.
